Assays:
Purple nutsedge [1] = test: Test 11 citrus pots, preemergence to the weeds; assay type: in vivo, Cyperus rotundus; details: Preemergence 32 g/ha; 0.25% X-77 surfactant; scale 0-100
Experimental: (§1) Budded citrus seedlings were planted in 30-liter plastic pots which were also seeded with sandbur, guineagrass, narrowleaf panicum, common ragweed, yellow nutsedge, purple nutsedge and bindweed. Compound I was applied preemergence and postemergence to the weeds. Treatments were sprayed to simulate the trunk-to-trunk herbicide application method used in some citrus groves. The compound was also applied postemergence to weeds grown in windowsill flats. The flats were filled with planting medium and seeded with morningglory (Ipomoea spp.). purple nutsedge (Cyperus rotundus), pigweed (Amaranthus spp.), bindweed (Convolvulus spp.), narrowleaf panicum (Panicum maximum), common ragweed (Ambrosia artemisiifolia), sandbur (Cenchrus echinatus), itchgrass (Rottboellia exaltata), johnsongrass (Sorghum halepense), guineagrass (Panicum maximum), smooth crabgrass (Digitaria ischaemum), broadleaf signalgrass (Brachiaria platyphylla), bermudagrass (Cynodon dactylon), goosegrass (Eleusine indica), large crabgrass (Digitaria sanguinalis) and yellow nutsedge (Cyperus esculentus).
(§2) The compound was formulated and sprayed with 0.25% X-77 surfactant in water. Plants were visually rated 21 and 29 days after treatment and compared with appropriate controls. Injury ratings were based on the scale of 0 to 100, where 0 indicates no effect, 20 indicates minimum effect and 100 indicates complete control. […]

Agropyron repens = test: Test 2 perennial weeds from rhizomes; assay type: in vivo; details: 0.5% v/v non-ionic surfactant, scale 0-100
Experimental: (§3) Rhizomes of Agropyron repens and Cirsium arvense were planted in 17.5-cm plastic pots and grown in the greenhouse for 5 months prior to herbicide application. Plants were 24 to 35 cm tall and releasing lateral buds at the time of treatment. Compound I was diluted in water containing 0.5% v/v non-ionic surfactant and applied to the plants. The degree of weed control was visually rated 36 days after application of the herbicide. Control ratings were based upon comparison to an untreated control using a scale of 0 to 100 where 0 indicated no effect and […] represented death of all foliar portions with no regrowth apparent.

Cirsium arvense = test: Test 2 perennial weeds from rhizomes; assay type: in vivo; details: 0.5% v/v non-ionic surfactant, scale 0-100
Experimental: as §3

Guinea Grass = test: Test 3 postemergence weed control; assay type: in vivo, Panicum maximum; details: 32 g/ha, scale 0-100
Experimental: Seeds of crabgrass (Digitaria spp), guinea grass (Panicum maximum) and narrowleaf panicum (P. maximum) were planted in 15-cm plastic pots. The weeds were treated postemergence with compound I, formulated in a non-phytotoxic solvent, when the plants had 3 or more leaves and had tillered. The degree of weed control was visually rated 17 days after compound application (DAT). Control ratings were based on a scale of 0 to 100 where 0 = no effect, 20 = minimal control and 100 = complete control.

Sowthistle = test: Test 9 postemergence; assay type: in vivo, Sonchus spp; details: scale 0-100
Experimental: Plastic windowsill pots containing planting medium were seeded with bahiagrass, bindweed (Convolvulus spp), guinea grass (Panicum maximum), large crabgrass (Digitaria sanguinalis) and pigweed (Amaranthus spp). Individual 15-cm plastic pots contained sandbur (Cenchrus echinatus), Mikania cordata, Boston fern (Nephrolepis exalata), quackgrass (Agropyron repens), elephantgrass (Pennisetum purpureum) and sowthistle (Sonchus spp) plants.
Plants were treated postemergence with Compound I formulated in a non-phytotoxic solvent. Plants were visually rated 22 days after treatment (DAT). Injury and weed control ratings were based on the scale of 0 to 100 where 0 = no effect, 20 = minimal control and 100 = complete control.

Bermudagrass = test: Test 11 windowsill flats, postemergence; assay type: in vivo, Cynodon dactylon; details: Postemergence 32 g/ha, 0.25% X-77 surfactant, scale 0-100
Experimental: as §1, §2

Purple nutsedge [2] = test: Test 11 citrus pots, postemergence to the weeds; assay type: in vivo, Cyperus rotundus; details: Postemergence 32 g/ha, 0.25% X-77 surfactant, scale 0-100
Experimental: as §1, §2

`COC(=O)c1cccnc1S(=O)(=O)NC(=O)Nc1nc(OC)cc(OC)n1` [Compound I, 2-[[(4,6-dimethoxypyrimidin-2-yl)aminocarbonyl]aminosulfonyl]-3-pyridinecarboxylic acid, methyl ester] was tested, and the Injury ratings (Purple nutsedge [1]) was 100, the “Control ratings 36 DAT” value (Agropyron repens; 16 g/ha) was 85 and the “Control ratings 36 DAT” value (Agropyron repens; 32 g/ha) was 90. For the same compound, the “Control ratings 36 DAT” value (Agropyron repens; 64 g/ha) was 95, the “Control ratings 36 DAT” value (Cirsium arvense; 16 g/ha) was 40 and the “Control ratings 36 DAT” value (Cirsium arvense; 32 g/ha) was 50. For the same compound, the “Control ratings 36 DAT” value (Cirsium arvense; 64 g/ha) was 50, the “Control Rating 17 DAT” value (Guinea Grass) was 70 and the “Plant Injury Rating 22 DAT” value (Sowthistle; 8 g/ha) was 60. The “Plant Injury Rating 22 DAT” value (Sowthistle; 16 g/ha) was 70, the “Plant Injury Rating 22 DAT” value (Sowthistle; 32 g/ha) was 100 and the Injury ratings (Bermudagrass) was 20. For the same compound, the Injury ratings (Purple nutsedge [2]) was 90.
